{"source": "patent US5430058A", "about": "“Pharmaceutical compositions comprising hydroxamate derivatives for iron removal” (Yeda Research and Development Co. Ltd., priority 1993, dated 1995)", "key": {"[1]": {"test": "Relative iron(III) binding efficiency by competition with EDTA", "assay_type": "physicochemical", "conditions": "for Relative binding: Table 1, DFO = 100, competition with EDTA in aqueous MeOH; for rel. Fe binding (b): Table 2, relative to DFO = 1.16, 0.75 mM hydroxamate, 0.15 mM EDTA, 0.15 mM Fe3+ in aqueous methanol; for Pcoeff*Fe binding (a*b): product of relative partition coefficient and relative iron(III) binding", "protocol": "c. The relative binding efficiencies of the reversed siderophores (0.75 mM reversed siderophore and 0.15 mM Fe^3+ in aqueous MeOH (MeOH-0.1N NaOAc) were incubated with EDTA (0.15 mM). After equilibration overnight, the fraction of siderophore- Fe^3+ complex present was determined at 430 nm.\nThe values for Pcoeff of free RSF ileun2 (the same as SF1ileu) and of leun2 and their respective iron(III) complexes were similar (not shown)."}, "[2]": {"test_system": "Plasmodium falciparum strain D6", "test": "Antimalarial activity in various strains, D6", "assay_type": "cell-based", "protocol": "(§1) f. Parasite cultures. The P. falciparum strains used in the experiments: ItG2G1 (Brazil, provided by Dr. L. H. Miller), D6 (W. African, provided by Dr. A. J. M. Oduola) FCR-3 (Gambian, provided by Dr. J. B. Jensen) and W2 (Indochina, provided by Dr. A. J. M. Oduola), were grown in culture flasks of human erythrocytes by a modified version of Trager and Jensen's method as described by Silfen et al. ((1988) Biochem. Pharmacol. 37: 4269-4276)).\n(§2) g. Bioassay of iron carrier antimalarial activity. […] After the indicated time of incubation with drug and either previous to or after washing 3 times with 100 volumes growth medium, the cells were supplemented with 6 μCi of either [^3 H]-hypoxanthine or [^3 H]-Ileu (Amersham, England) per well and parasite growth assessed after 24-48 hours by harvesting the labelled cells onto glass-fiber filters (Tamar, Inc. Jerusalem) and counting of the radioactivity.\n(§3) It is clear that the efficacy of the agents is primarily correlated with the respective octanol/saline partition coefficient or the hydrophobicity of the amino acid side chain, and only secondarily with their iron binding efficiencies, which are relatively high for all the agents. […] The antimalarial activity of the various chelators was assessed over a 24 hr period of exposure on infected cells (trophozoite stage of P. falciparum) as described in method (g). […]"}, "[3]": {"test_system": "Plasmodium falciparum strain ItG2G1", "test": "Antimalarial activity in various strains, ItG2G1", "assay_type": "cell-based", "protocol": "as §1, §2, §3"}, "[4]": {"test_system": "Plasmodium falciparum strain W2", "test": "Antimalarial activity in various strains, W2", "assay_type": "cell-based", "protocol": "as §1, §2, §3"}, "[5]": {"test_system": "Plasmodium falciparum strain FCR3", "test": "Antimalarial activity in various strains, FCR3", "assay_type": "cell-based", "protocol": "as §1, §2, §3"}, "[6]": {"test_system": "synchronized cultures of trophozoites (P. falciparum)", "test": "Time dependence of parasite growth inhibition, trophozoites", "assay_type": "cell-based, Plasmodium falciparum", "conditions": "for Inhibitory effect, in words: trophozoites; for inhibition at 10 µg/mL: Plasmodium falciparum, read-out: Inhibition of parasite growth", "protocol": "g. Bioassay of iron carrier antimalarial activity. The antimalarial activity was assayed by adding the compounds from concentrated stock solutions (in DMSO) to microcultures (24 wells, Costar) containing infected red cells (2.5% hematocrit and 2% parasitemia). The cultures were usually synchronized (4-7 hrs. windows) by incubation in 300 mM Ala, 10 mM TRIS-Cl in conjunction with gelatin flotation and used either at the trophozoite (1-2% parasitemia) or at the ring stage (4-6% parasitemia) of the erythrocyctic cycle. After the indicated time of incubation with drug and either previous to or after washing 3 times with 100 volumes growth medium, the cells were supplemented with 6 μCi of either [^3 H]-hypoxanthine or [^3 H]-Ileu (Amersham, England) per well and parasite growth assessed after 24-48 hours by harvesting the labelled cells onto glass-fiber filters (Tamar, Inc. Jerusalem) and counting of the radioactivity.\nTo study the growth stage of parasites most sensitive to inhibition, the time dependence of the inhibitory effect of SF1-ileu (10 μg/ml) vis a vis that of DFO (80 μg/ml) was assessed both on synchronized cultures of rings and of cultures of trophozoites. The cells were exposed to the […], the cells were washed from extracellular drug and assessed for [^3 H]-hypoxanthine incorporation after the last sample completed the 4 hours incubation period with drug."}, "[7]": {"test_system": "mouse NIH 3T3 fibroblasts", "test": "Proliferation of mammalian cells, NIH 3T3", "assay_type": "cell-based", "conditions": "for Proliferation (nucleic acid synthesis): 24 hours exposure, [3H]-hypoxanthine; for Proliferation (protein synthesis): [3H]ileu incorporation, not shown", "protocol": "The possibility that the reversed siderophores might affect mammalian cells in culture was assessed in conditions identical to those used for parasites in cultures. […] Nucleic acid synthesis was measured in cultures of mouse NIH 3T3 fibroblasts and human HT29 colonic carcinoma cells in the presence of either SF1-ileu (open circles), desferrioxamine (DFO) (solid triangle) in DMSO or DMSO alone (Control) (<1% final) (open triangles) at same concentrations. Cultures at confluence were exposed to chelators for 24 hours; the first 3 hours without radiolabel and 21 hours with 6 μCi/ml of [^3 H]-hypoxanthine. Extracellular hypoxanthine was removed by several washes with PBS and the cells were treated with 5% TCA for 15 minutes at 5° C. and solubilized with hot 2.5% SDS. Samples were taken for counting of radioactivity and measurement of protein (BCA, Pierce). Data are given as dpm/μg protein and SD (duplicate samples)."}, "[8]": {"test_system": "plasma", "test": "Pre-incubation of plasma with chelator, effect on parasite growth", "assay_type": "cell-based, human", "conditions": "40 fold IC50, then dialysis", "protocol": "h. The effect of pre-incubation of red cells or plasma with drug on parasite growth. Red cell suspensions (5% hematocrit) in RPMI 1640 medium pH 7.4 (no plasma) were treated for 24-48 hrs with either 100 μg/ml of chelator or DMSO alone (<1% final concentration) in culture conditions. Chelator was removed by washing the cells 4 times with RPMI followed by 1 hour incubation at 37° C. Parasite growth was assayed after addition of gelatin enriched schizonts (>90%) as described above. […] The plasma was subsequently dialyzed for 24 hours against 800 ml 0.1% bovine serum albumin (BSA), and 10 mM glucose in phosphate buffered saline (PBS) pH 7.4, followed by an additional 24 hour dialysis against 400 ml of the same buffer and supplemented to the medium for parasite growth assays.\nPlasma and uninfected red cells were separately treated with relatively high concentrations of chelators (100 μg/ml) in order to evaluate whether the site of action of the lipophilic chelators was associated with components of the plasma and/or the uninfected red cell."}, "[9]": {"test_system": "human Hep2 hepatoma cells", "test": "Iron extraction from hepatoma cells (NBD-DFO fluorescence)", "assay_type": "cell-based", "conditions": "cells pre-exposed to chelator (80 μg/ml, 18 hour)"}, "[10]": {"test_system": "ferritin", "test": "Effect on iron in ferritin", "design": "species or system horse", "conditions": "after the same time of exposure", "protocol": "Experimental testing of iron(III)-chelation properties RSF's were performed on human red blood cell lysates (normal and malaria parasitized), intact cells (4 hrs incubation times at 37° C.), free horse spleen ferritin (4-10 hrs at 37° C.) and ferritin-containing HEP-2 (human hepatoma) cells (4-10 hrs at 37° C.) using RSF1-ileu."}, "[11]": {"test_system": "transferrin", "test": "Effect on iron in transferrin", "conditions": "after the same time of exposure"}, "[12]": {"test_system": "red cells", "test": "Penetration of chelator into red cells", "assay_type": "cell-based, human"}}, "note": "Like-named read-outs stand apart in the source and are kept apart here.", "data": [{"smiles": "CC(=O)N(O)CCCCCNC(=O)CCC(=O)N(O)CCCCCNC(=O)CCC(=O)N(O)CCCCCN", "note": "[DFO, desferrioxamine B, reference compound]", "values": [{"measurement": "Relative binding", "setting": "[1]", "result": 100}, {"measurement": "rel. Fe binding (b)", "setting": "[1]", "result": 1.16}, {"measurement": "Pcoeff*Fe binding (a*b)", "setting": "[1]", "result": 0.065}, {"measurement": "IC50", "setting": "[2]; strain D6 (chloroquine-sensitive), 48 hour exposure, trophozoites, read-out: IC50", "result": "40 ± 9", "unit": "µg/mL"}, {"measurement": "IC50", "setting": "[3]; strain ItG2G1 (chloroquine-sensitive), 48 hour exposure, trophozoites, read-out: IC50", "result": "35 ± 3", "unit": "µg/mL"}, {"measurement": "IC50", "setting": "[4]; strain W2 (chloroquine-resistant), 48 hour exposure, trophozoites, read-out: IC50", "result": "31 ± 6", "unit": "µg/mL"}, {"measurement": "IC50", "setting": "[5]; strain FCR3 (chloroquine-resistant), 48 hour exposure, trophozoites, read-out: IC50", "result": "32 ± 7", "unit": "µg/mL"}, {"measurement": "Inhibitory effect, in words", "setting": "[6]; DFO 80 μg/ml, 6 hrs exposure", "result": "inhibitory effects were dismal"}, {"measurement": "Inhibitory effect, in words", "setting": "[6]; DFO 80 μg/ml, 20 hrs exposure", "result": "substantial inhibition"}, {"measurement": "Proliferation (nucleic acid synthesis)", "setting": "[7]", "result": "neither SF1-ileu nor DFO affected the proliferation"}, {"measurement": "Proliferation (protein synthesis)", "setting": "[7]", "result": "neither SF1-ileu nor DFO affected the proliferation"}]}, {"smiles": "CC[C@H](C)[C@H](NC(=O)CCOCC(CC)(COCCC(=O)N[C@H](C(=O)N(C)O)[C@@H](C)CC)COCCC(=O)N[C@H](C(=O)N(C)O)[C@@H](C)CC)C(=O)N(C)O", "note": "[SF1-ileu]", "values": [{"measurement": "Relative binding", "setting": "[1]", "result": 25}, {"measurement": "rel. Fe binding (b)", "setting": "[1]", "result": 0.29}, {"measurement": "Pcoeff*Fe binding (a*b)", "setting": "[1]", "result": 2.4}, {"measurement": "IC50", "setting": "[2]; D6, 48 h", "result": "6 ± 2", "unit": "µg/mL"}, {"measurement": "IC50", "setting": "[3]; 48 h", "result": "5 ± 2", "unit": "µg/mL"}, {"measurement": "IC50", "setting": "[4]; W2, 48 h", "result": "4 ± 1", "unit": "µg/mL"}, {"measurement": "IC50", "setting": "[5]; FCR3, 48 h", "result": "3 ± 1", "unit": "µg/mL"}, {"measurement": "Ability of plasma to support parasite growth after pre-treatment", "setting": "[8]", "result": "no significant effect"}, {"measurement": "inhibition at 10 µg/mL", "setting": "[6]; 2 h", "result": "~90", "unit": "%"}, {"measurement": "inhibition at 10 µg/mL", "setting": "[6]; 20 h", "result": "> 95", "unit": "%"}, {"measurement": "Inhibitory effect, in words", "setting": "[6]; 0.5 hr incubation, SF1-ileu 10 μg/ml", "result": "major inhibitory effects"}, {"measurement": "Proliferation (nucleic acid synthesis)", "setting": "[7]", "result": "neither SF1-ileu nor DFO affected the proliferation"}, {"measurement": "Proliferation (protein synthesis)", "setting": "[7]", "result": "neither SF1-ileu nor DFO affected the proliferation"}, {"measurement": "Chelatable cytosolic iron", "setting": "[9]", "result": "demonstrably reduced"}, {"measurement": "Effect on iron in ferritin", "setting": "[10]", "result": "not substantially affecting iron in ferritin"}, {"measurement": "Effect on iron in transferrin", "setting": "[11]", "result": "not substantially affecting"}, {"measurement": "Penetration into red cells", "setting": "[12]", "result": "can easily penetrate into red cells"}]}]}
